According to the supplement of paper PMC10883282:
± gives the standard deviation of the averaged measurements.

Test system: RD
Assay: relative viability vs DMSO control (72 h) (fraction); higher = more viable cells
Outline: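 Serially diluted compound, 2.5 µl from source plates spanning 10 mM to 0.0002 mM, was added 24 h after sarcoma cell lines were seeded in 384-well plates at densities targeting 80–90% confluence. Plates then sat 72 h at 37 °C, 5% CO2, with 0.1% DMSO vehicle and a 5 µM positive control. Relative viability came from ATPLite as percent growth, averaged over up to triplicate wells, and was rescaled with 1 as full and 0 as none.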

Compound | relative viability (0.00017 µM) | relative viability (0.00051 µM) | relative viability (0.00152 µM) | relative viability (0.00457 µM) | relative viability (0.01372 µM) | relative viability (0.04115 µM) | relative viability (0.1235 µM) | relative viability (0.3704 µM) | relative viability (1.111 µM) | relative viability (3.333 µM) | relative viability (10 µM) | relative viability (2 pM) | relative viability (5 pM) | relative viability (15 pM) | relative viability (50 pM) | relative viability (0.00014 µM) | relative viability (0.00041 µM) | relative viability (0.0012 µM) | relative viability (0.0037 µM) | relative viability (0.011 µM) | relative viability (200 fM) | relative viability (600 fM)
Nc1cc(C(F)(F)F)c(-c2cc(N3CCOCC3)nc(N3CCOCC3)n2)cn1 [Buparlisib] | 1.09 ± 0.015 | 1.06 ± 0.025 | 1.09 ± 0.055 | 1.08 ± 0.05 | 1.07 ± 0.028 | 1.09 ± 0.045 | 1 ± 0.046 | 0.868 ± 0.045 | 0.428 ± 0.042 | 0.133 ± 0.011 | 0.126 ± 0.015 | – | – | – | – | – | – | – | – | – | – | –
Cc1cnc(Nc2ccc(OCCN3CCCC3)cc2)nc1Nc1cccc(S(=O)(=O)NC(C)(C)C)c1 [Fedratinib] | 1.07 ± 0.031 | 1.09 ± 0.03 | 1.12 ± 0.042 | 1.13 ± 0.048 | 1.12 ± 0.064 | 1.14 ± 0.058 | 1.09 ± 0.09 | 0.785 ± 0.066 | 0.445 ± 0.025 | 0.0678 ± 0.011 | 0.00303 ± 0.0004 | – | – | – | – | – | – | – | – | – | – | –
COc1cc2c(Oc3ccc4[nH]c(C)cc4c3F)ncnc2cc1OCCCN1CCCC1 [Cediranib] | 1.09 ± 0.043 | 1.1 ± 0.058 | 1.09 ± 0.015 | 1.15 ± 0.057 | 1.09 ± 0.076 | 1.13 ± 0.046 | 1.1 ± 0.03 | 1.04 ± 0.06 | 1 ± 0.077 | 1.03 ± 0.13 | 0.962 ± 0.078 | – | – | – | – | – | – | – | – | – | – | –
CC(=O)Nc1cccc(-n2c(=O)n(C3CC3)c(=O)c3c(Nc4ccc(I)cc4F)n(C)c(=O)c(C)c32)c1 [Trametinib] | 1.08 ± 0.027 | 1.07 ± 0.064 | 0.971 ± 0.099 | 0.838 ± 0.044 | 0.669 ± 0.07 | 0.608 ± 0.051 | 0.584 ± 0.032 | 0.558 ± 0.038 | 0.556 ± 0.03 | 0.523 ± 0.04 | 0.477 ± 0.022 | – | – | – | – | – | – | – | – | – | – | –
CC(C)N1CCN(Cc2cnc(-c3cc(-c4cccc5[nH]ccc45)cc4[nH]ncc34)o2)CC1 [Nemiralisib] | 0.931 ± 0.024 | 0.951 ± 0.017 | 0.916 ± 0.051 | 0.955 ± 0.025 | 0.941 ± 0.025 | 0.937 ± 0.011 | 0.964 ± 0.016 | 0.902 ± 0.028 | 0.83 ± 0.01 | 0.692 ± 0.053 | 0.128 ± 0.083 | – | – | – | – | – | – | – | – | – | – | –
Cc1cc(Nc2ncnc3ccc(NC4=NC(C)(C)CO4)cc23)ccc1Oc1ccn2ncnc2c1 [Tucatinib] | 1.08 ± 0.071 | 1.09 ± 0.076 | 1.11 ± 0.04 | 1.08 ± 0.04 | 1.1 ± 0.026 | 1.1 ± 0.017 | 1.07 ± 0.067 | 1.11 ± 0.073 | 1.14 ± 0.081 | 1.18 ± 0.063 | 1.15 ± 0.061 | – | – | – | – | – | – | – | – | – | – | –
COc1cc2c(cc1O)CCN[C@]21CS[C@@H]2c3c(OC(C)=O)c(C)c4c(c3[C@H](COC1=O)N1[C@@H]2[C@H]2c3c(cc(C)c(OC)c3O)C[C@@H]([C@@H]1O)N2C)OCO4 [Trabectedin] | – | – | – | – | – | – | – | – | – | – | – | 1.08 ± 0.055 | 1.08 ± 0.068 | 1.08 ± 0.048 | 1 ± 0.045 | 0.678 ± 0.022 | 0.166 ± 0.14 | 0.158 ± 0.0037 | 0.128 ± 0.0033 | 0.104 ± 0.01 | 1.1 ± 0.043 | 1.08 ± 0.015
C[C@@H]1COCCN1c1cc(-c2ccnn2C)c2ccnc(-c3ccn[nH]3)c2n1 | 1.08 ± 0.059 | 1.09 ± 0.027 | 1.09 ± 0.083 | 1.12 ± 0.065 | 1.1 ± 0.037 | 1.08 ± 0.046 | 0.93 ± 0.03 | 0.627 ± 0.025 | 0.378 ± 0.018 | 0.23 ± 0.017 | 0.188 ± 0.011 | – | – | – | – | – | – | – | – | – | – | –
Cc1cc(C)c(/C=C2\C(=O)Nc3ccccc32)[nH]1 [Semaxanib] | 1.07 ± 0.053 | 1.05 ± 0.042 | 1.06 ± 0.035 | 1.08 ± 0.016 | 1.08 ± 0.028 | 1.088 ± 0.0067 | 1.09 ± 0.037 | 1.09 ± 0.02 | 1.08 ± 0.023 | 1.06 ± 0.046 | 1 ± 0.041 | – | – | – | – | – | – | – | – | – | – | –
